Measurements reported in US20250229073A1, “TRANSIENT DISRUPTION OF THE NEUROVASCULAR BARRIER OF A HUMAN AND USES THEREOF FOR TREATING AMYOTROPHIC LATERAL SCLEROSIS” (SORBONNE UNIVERSITE, priority 2022, published 2025).
One block for each compound: values may come before it.

Legend:
[1] = Blood spinal cord barrier opening assessed by Evan's Blue Dye spinal cord uptake quantification; assay type: in vivo; conditions: healthy WT mice
Procedure: (§1) A 1-cm, 1 MHz planar ultrasound transducer was coupled to the skin with ultrasound coupling gel and positioned to target the lumbar spinal cord. The peak acoustic pressure was 0.5 MPa for tolerance tests in WT mice and 0.35 MPa was sufficient for blood spinal cord disruption assessment and for ALS mouse procedures (FIG. 1). At the beginning of the sonication, 0.2 mL of microbubbles (SonoVue, Bracco®) were injected intravenously. Twenty-four mice were used to test the sonication protocol
Blood spinal cord opening was assessed on 27 WT mice with Evan's Blue Dye (EBD) spinal cord uptake quantification.
(§2) The spinal cord was removed and frozen in liquid nitrogen. • For immunohistological analysis and motor neuron count (fixed tissues), the mice were perfused transcardially with 20 mL PBS then 50 mL of 4% paraformaldehyde in phosphate buffer. The spinal cord was extracted, and placed for 4 hours in 4% paraformaldehyde for post-fixation and then cryopreserved in a 30% sucrose solution in PBS before freezing. Thirty-micron thick transverse sections were cut on a cryostat at −18° C. Floating segments of spinal cord were stored in phosphate buffered saline solution at 4° C. Motor neuron counts were determined on serial sections across the lumbar spinal cords (15-20 sections per animal) after Nissl staining. • For immunostaining, sections were incubated overnight at room temperature with the following antibodies: rabbit anti-Iba1 (1:500 Wako Chemicals), anti-GFAP (1:500 Dako anti GFAP), rat anti-CD4 (1:100, AbD Serotec), rat anti CD3 (1:100, AbD Serotec), rat anti CD8 (1:100, AbD Serotec, rabbit polyclonal to human SOD1 (1:10000, Abcam). Species specific Alexa Fluor 488, 594, 647 (1:1000 Life Technologies) were used as secondary antibodies
GraphPad (GraphPad Software, San Diego, CA) was used for all statistical analysis. Statistical significance was set at p≤0.05. […] A Log-rank P value was calculated with Mantel-Cox test to compare the survival curves and corrected with the Bonferroni coefficient.

[2] = tested on: patients suffering from ALS; conditions: clinical, literature; cited from earlier work
[3] = IGF1 spinal cord uptake quantification (Quantikine ELISA human IGF-1); assay type: in vivo; conditions: healthy WT mice
Procedure: A 1-cm, 1 MHz planar ultrasound transducer was coupled to the skin with ultrasound coupling gel and positioned to target the lumbar spinal cord. […] At the beginning of the sonication, 0.2 mL of microbubbles (SonoVue, Bracco®) were injected intravenously. Twenty-four mice were used to test the sonication protocol
Fourteen sonicated lumbar spinal cord were compared to 15 non-sonicated lumbar spinal cord
GraphPad (GraphPad Software, San Diego, CA) was used for all statistical analysis. Statistical significance was set at p≤0.05. […] Data are represented as Mean+SEM.

SOD1^G93A ALS mice [4] = experiment: Histological analysis of spinal cord of the ALS treated mice (immunostaining, motor neuron counts); assay type: in vivo
Description: The onset of disease was defined as the time point at which the mice were at peak weight before they started to lose weight due to progressive motor neuron denervation and muscle wasting, as shown in FIG. 1. The symptomatic stage was defined as the age at which the mice had lost 10% of their maximal weight and is accompanied by gait alterations and failure of hindlimb splaying reflex. This disease stage was followed by progressive paralysis. […] In each group some randomly assigned mice were sacrificed at the symptomatic stage (defined as 10% of weight loss) or at disease end stage for immunohistological analysis.
as §2
GraphPad (GraphPad Software, San Diego, CA) was used for all statistical analysis. Statistical significance was set at p≤0.05. […] Duration of early and late phases between the groups were compared by ANOVA after a normality test and followed by post-hoc Tukey-Kramer Multiple comparison test or Dunnett's multiple comparison test. Motor neuron count, immune activation and SOD1 expression were compared in different group using Kruskall Wallis test. Data are represented as Mean+SEM. Kruskal Wallis non parametric test was used to compare the total number of lymphocytes (CD4 and CD8). Survival analysis (onset disease, end-stage) was performed with Kaplan-Meier statistics. A Log-rank P value was calculated with Mantel-Cox test to compare the survival curves and corrected with the Bonferroni coefficient.

SOD1^G93A ALS mice [5] = experiment: Clinical and survival evaluation of treated ALS mice; assay type: in vivo
Procedure: Eighty Mutant SOD1^G93A female mice modeling ALS [B6.Cg-Tg (SOD1^G93A) 1Gur/J] were purchased from Jackson Laboratories (stock #004435) and 120 wild type control mice (WT), with a C57B16/J genetic background. The animal protocol complied with the European laws for the protection of experimental animals and was approved by the local ethics committee. Mice were maintained on a 12:12 h dark: light cycle with food and water available ad libitum. Moisturized food pellets were supplied when mice became weak. ALS mice were hemizygous for a 12 kb genomic fragment encoding the human wild-type or mutated SOD1 gene under its endogenous promoter. Mice carrying the human SOD1 transgene were identified by PCR screening of tail DNA using mouse SOD1 forward primer (5′-[…]-3′), human SOD1 forward primer (5′-[…]-3′) and mouse and human SOD1 reverse primer (5′-[…]-3′) resulting in a ˜800 bp mouse and a ˜600 bp human SOD1 PCR product.
To represent as close as possible the clinical disease progression in humans, treatment started at the beginning of the disease and not at a presymptomatic stage. SOD1^G93A mice are a particularly severe model in terms of symptoms. The mice quickly become too weak to tolerate general anesthesia, which led us to stop treatments at 135 days of age, or 1 month of treatment (5 sessions). This corresponds approximately to the end of the early phase of the disease.
as §1
Controls and US mice received a subcutaneous injection of 0.9% saline. […]
Muscle strength of mice was assessed by three different motor tests: grip testing, inverted screen testing and wire suspension testing. […]

EBD concentration, sonicated compared to non-sonicated segments [1]: 3.4 times
EBD concentration in spinal cord, non-sonicated segments ([1]; non-sonicated segments): 41 µg/g
EBD concentration in spinal cord, sonicated segments ([1]; sonicated segments of spinal cord): 142 µg/g
Compound: Cc1cc(-c2ccc(/N=N/c3ccc4c(S(=O)(=O)[O-])cc(S(=O)(=O)[O-])c(N)c4c3O)c(C)c2)ccc1/N=N/c1ccc2c(S(=O)(=O)[O-])cc(S(=O)(=O)[O-])c(N)c2c1O.[Na+].[Na+].[Na+].[Na+] [EBD, Evan's Blue Dye]

Compound: Nc1nc2ccc(OC(F)(F)F)cc2s1 [riluzole, 2-amino-6-trifluoromethoxybenzothiazole]
side effects in ALS patients [2]: asthenia, spasticity and an increase in the transaminase levels

Compound: IGF1: rhIGF1 (Mecasermine, IPSEN Pharma), Insulin-like Growth Factor 1, subcutaneous injection of 500 μg/kg
IGF1 concentration, sonicated compared to non-sonicated [3]: 1100 times
immunofluorescent area occupied by SOD1, end stage mice (SOD1^G93A ALS mice [4]; disease end stage): lowest percentage of SOD1
number of lymphocytes (CD3+) per section (SOD1^G93A ALS mice [4]; end stage, control 11±3.6): 28.5±3.8
astrocyte reactivity, immunoreactive area for GFAP (SOD1^G93A ALS mice [4]; stage not given, control 12±2.6, unit from FIG. 4 legend): 5.9±2.5%
immunofluorescent area occupied by SOD1, symptomatic mice (SOD1^G93A ALS mice [4]; symptomatic stage (10% weight loss)): lowest percentage of SOD1
microglial reactivity, Iba1 immunoreactivity (SOD1^G93A ALS mice [4]; symptomatic stage, control 10.3±0.6%): 5±2.1%
number of lymphocytes (CD3+) per section (SOD1^G93A ALS mice [4]; symptomatic stage, control 13±3.5): 20±5.3
ALS mouse survival (median age) (SOD1^G93A ALS mice [5]; SOD1^G93A mice, 5 weekly sessions from P106, control 166.5 days): 166 days
early disease phase duration (SOD1^G93A ALS mice [5]; peak weight to 10% weight loss, control 37.4±3.4, b130 gives the gain in days): 36.8±2.8
effect of IGF1 administration on survival or functional tests (SOD1^G93A ALS mice [5]; whether or not associated with ultrasound, 0.5 mg/kg once a week, five injections): no additional effect
